{"source": "patent US12521393B2", "about": "“Cytotoxicity targeting chimeras for CCR2-expressing cells” (GLAXOSMITHKLINE INTELLECTUAL PROPERTY DEVELOPMENT LIMITED, priority 2021, dated 2026)", "key": {"[1]": {"system": "endogenous target monocytes in human PBMC", "assay": "PBMC ex vivo monocyte depletion flow cytometry assay (Example 200)", "assay_type": "cell-based", "settings": "with anti-cotinine antibody (SEQ ID NO: 11/12), 18-24 hours, EC50 in molar, read-out: Ex Vivo Depletion Assay pEC50 (converted)", "outline": "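Monocyte depletion is reported as pEC50, averaged or given individually across runs, and read by flow cytometry staining CD45, CD14 and CD4 with a viability dye. Compounds, diluted four-fold over 11 points from 1 mM DMSO stocks, were combined with 30 μg/mL Fc-enhanced anti-cotinine antibody and human PBMC, then incubated 18-24 h at 37° C.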"}, "[2]": {"biological_target": "human alpha1 nicotinic acetylcholine (nACh) receptor (Homo sapiens, UniProt P02708)", "sequence (P02708 21-457)": "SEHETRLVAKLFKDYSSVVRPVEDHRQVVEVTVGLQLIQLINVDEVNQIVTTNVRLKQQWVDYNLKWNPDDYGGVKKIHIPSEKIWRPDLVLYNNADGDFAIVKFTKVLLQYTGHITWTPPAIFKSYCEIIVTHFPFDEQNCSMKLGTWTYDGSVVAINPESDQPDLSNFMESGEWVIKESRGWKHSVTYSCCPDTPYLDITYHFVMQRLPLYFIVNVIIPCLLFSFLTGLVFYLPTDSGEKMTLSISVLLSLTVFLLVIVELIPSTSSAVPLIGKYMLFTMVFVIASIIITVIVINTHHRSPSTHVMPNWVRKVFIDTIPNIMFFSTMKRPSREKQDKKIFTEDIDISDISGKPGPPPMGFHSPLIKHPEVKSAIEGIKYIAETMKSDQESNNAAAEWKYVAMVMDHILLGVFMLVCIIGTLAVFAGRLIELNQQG", "sequence (P11230 24-501 partner)": "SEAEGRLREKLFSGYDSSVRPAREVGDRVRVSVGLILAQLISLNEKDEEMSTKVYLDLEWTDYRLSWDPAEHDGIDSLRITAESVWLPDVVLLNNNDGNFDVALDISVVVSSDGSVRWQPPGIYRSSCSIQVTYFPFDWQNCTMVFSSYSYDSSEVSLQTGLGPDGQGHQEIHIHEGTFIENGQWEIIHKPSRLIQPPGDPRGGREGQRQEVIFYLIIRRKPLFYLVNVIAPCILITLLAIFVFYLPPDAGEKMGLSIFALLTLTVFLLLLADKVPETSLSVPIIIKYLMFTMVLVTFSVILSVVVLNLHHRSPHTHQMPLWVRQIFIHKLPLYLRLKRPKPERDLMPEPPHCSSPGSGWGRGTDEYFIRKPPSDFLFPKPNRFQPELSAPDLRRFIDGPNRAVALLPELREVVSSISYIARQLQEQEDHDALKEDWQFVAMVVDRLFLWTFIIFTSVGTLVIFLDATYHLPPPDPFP", "sequence (Q07001 22-517 partner)": "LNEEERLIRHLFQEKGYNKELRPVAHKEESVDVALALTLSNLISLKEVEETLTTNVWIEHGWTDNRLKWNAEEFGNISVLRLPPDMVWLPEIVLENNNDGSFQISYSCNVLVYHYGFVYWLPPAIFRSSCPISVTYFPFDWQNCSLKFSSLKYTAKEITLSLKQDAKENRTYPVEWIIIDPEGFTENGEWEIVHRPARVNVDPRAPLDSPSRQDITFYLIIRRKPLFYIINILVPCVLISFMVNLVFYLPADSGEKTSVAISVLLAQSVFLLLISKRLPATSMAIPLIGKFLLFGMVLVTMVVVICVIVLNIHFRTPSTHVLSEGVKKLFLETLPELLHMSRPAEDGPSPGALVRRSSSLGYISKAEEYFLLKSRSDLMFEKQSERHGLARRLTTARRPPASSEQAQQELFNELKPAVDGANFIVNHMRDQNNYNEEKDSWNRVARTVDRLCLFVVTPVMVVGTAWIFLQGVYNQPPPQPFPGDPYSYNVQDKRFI", "assay": "Nicotinic acetylcholine receptor antagonism assay, IONFlux automated patch clamp (Example 203)", "assay_type": "cell-based", "settings": "for pIC50: antagonism of ACh-stimulated human alpha1 nAChR current, patch clamp; for Emax at 100 µM: maximum percentage antagonism at maximum concentration tested 100 μM; for Emax at 100 µM / Emax at 10 µM: read-out: Maximum Response; for Emax at 10 µM: maximum percentage antagonism at maximum concentration tested 10 μM", "outline": "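Cells expressing human α1 nAChR were incubated with a compound dose response (top 10 μM or 100 μM), then stimulated with ACh (10 mM), and peak current was read by automated patch clamp. % inhibition was taken against ACh-alone control, corrected for vehicle and run-down, and fit non-linearly for IC50; runs were averaged.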"}}, "note": "pIC50: −log10 of the molar value."}
{"smiles": "CC(C)N(C)[C@@H]1CC[C@H](N2CC[C@H](Nc3ncnc4ccc(C(F)(F)F)cc34)C2=O)[C@H](NC(=O)CCNC(=O)CCCOC[C@H]2CC[C@@H](COCCNC(=O)[C@H]3CC(=O)N(C)[C@@H]3c3cccnc3)CC2)C1", "note": "[Example 62, (2S,3S)-N-(2-(((1S,4R)-4-((4-((3-(((1R,2S,5R)-5-(Isopropyl(methyl)amino)-2-((S)-2-oxo-3-((6-(trifluoromethyl)quinazolin-4-yl)amino)pyrrrolidin-1-yl)cyclohexyl)amino)-3-oxopropyl)amino)-4-oxobutoxy)methyl)cyclohexyl)methoxy)ethyl)-1-methyl-5-oxo-2-(pyridin-3-yl)pyrrolidine-3-carboxamide]", "values": [{"measurement": "EC50", "setting": "[1]", "value": 0.501, "unit": "nM"}, {"measurement": "pIC50", "setting": "[2]", "value": 4.54}, {"measurement": "Emax at 100 µM", "setting": "[2]", "value": 67.9, "unit": "%"}]}
{"smiles": "CC(C)N(C)[C@@H]1CC[C@H](N2CC[C@H](Nc3ncnc4ccc(C(F)(F)F)cc34)C2=O)[C@H](NC(=O)[C@H]2CC[C@@H](NC(=O)CCOCCOCCNC(=O)CNC(=O)[C@H]3CC(=O)N(C)[C@@H]3c3cccnc3)CC2)C1", "note": "[Example 63, (2S,3S)-N-(2-((2-(2-(3-(((1S,4s)-4-(((1R,2S,5R)-5-(Isopropyl(methyl)amino)-2-((S)-2-oxo-3-((6-(trifluoromethyl)quinazolin-4-yl)amino)pyrrolidin-1-yl)cyclohexyl)carbamoyl)cyclohexyl)amino)-3-oxopropoxy)ethoxy)ethyl)amino)-2-oxoethyl)-1-methyl-5-oxo-2-(pyridin-3-yl)pyrrolidine-3-carboxamide]", "values": [{"measurement": "EC50", "setting": "[1]", "value": 0.631, "unit": "nM"}, {"measurement": "pIC50", "setting": "[2]", "value": 4.41}, {"measurement": "Emax at 100 µM", "setting": "[2]", "value": 76.6, "unit": "%"}]}
{"smiles": "CC(C)N(C)[C@@H]1CC[C@H](N2CC[C@H](Nc3ncnc4ccc(C(F)(F)F)cc34)C2=O)[C@H](NC(=O)CCOCCOCCNC(=O)CCOCCOCCNC(=O)[C@H]2CC(=O)N(C)[C@@H]2c2cccnc2)C1", "note": "[Example 76, (2S,3S)-N-(19-(((1R,2S,5R)-5-(Isopropyl(methyl)amino)-2-((S)-2-oxo-3-((6-(trifluoromethyl)quinazolin-4-yl)amino)pyrrolidin-1-yl)cyclohexyl)amino)-9,19-dioxo-3,6,13,16-tetraoxa-10-azanonadecyl)-1-methyl-5-oxo-2-(pyridin-3-yl)pyrrolidine-3-carboxamide]", "values": [{"measurement": "EC50", "setting": "[1]", "value": 1.26, "unit": "nM"}, {"measurement": "pIC50", "setting": "[2]", "value": 4.49}, {"measurement": "Emax at 100 µM", "setting": "[2]", "value": 67.7, "unit": "%"}]}
{"smiles": "CC(C)N(C)[C@@H]1CC[C@H](N2CC[C@H](Nc3ncnc4ccc(C(F)(F)F)cc34)C2=O)[C@H](NC(=O)[C@H]2CC[C@@H](NC(=O)COCCNC(=O)COCCNC(=O)[C@H]3CC(=O)N(C)[C@@H]3c3cccnc3)CC2)C1", "note": "[Example 99, (2S,3S)-N-(2-(2-((2-(2-(((1S,4s)-4-(((1R,2S,5R)-5-(Isopropyl(methyl)amino)-2-((S)-2-oxo-3-((6-(trifluoromethyl)quinazolin-4-yl)amino)pyrrolidin-1-yl)cyclohexyl)carbamoyl)cyclohexyl)amino)-2-oxoethoxy)ethyl)amino)-2-oxoethoxy)ethyl)-1-methyl-5-oxo-2-(pyridin-3-yl)pyrrolidine-3-carboxamide]", "values": [{"measurement": "EC50", "setting": "[1]", "value": 0.794, "unit": "nM"}, {"measurement": "pIC50", "setting": "[2]", "value": 4.48}, {"measurement": "Emax at 100 µM", "setting": "[2]", "value": 71.1, "unit": "%"}]}
{"smiles": "CC(C)N(C)[C@@H]1CC[C@H](N2CC[C@H](Nc3ncnc4ccc(C(F)(F)F)cc34)C2=O)[C@H](NC(=O)CCOCCNC(=O)COCCNC(=O)COCCNC(=O)[C@H]2CC(=O)N(C)[C@@H]2c2cccnc2)C1", "note": "[Example 102, (2S,3S)-N-(18-(((1R,2S,5R)-5-(Isopropyl(methyl)amino)-2-((S)-2-oxo-3-((6-(trifluoromethyl)quinazolin-4-yl)amino)pyrrolidin-1-yl)cyclohexyl)amino)-5,11,18-trioxo-3,9,15-trioxa-6,12-diazaoctadecyl)-1-methyl-5-oxo-2-(pyridin-3-yl)pyrrolidine-3-carboxamide]", "values": [{"measurement": "EC50", "setting": "[1]", "value": 0.316, "unit": "nM"}, {"measurement": "pIC50", "setting": "[2]", "value": 4.18}, {"measurement": "Emax at 100 µM", "setting": "[2]", "value": 61.3, "unit": "%"}]}
{"smiles": "CC(C)N(C)[C@@H]1CC[C@H](N2CC[C@H](Nc3ncnc4ccc(C(F)(F)F)cc34)C2=O)[C@H](NC(=O)CCOCCNC(=O)CCOCCNC(=O)COCCNC(=O)[C@H]2CC(=O)N(C)[C@@H]2c2cccnc2)C1", "note": "[Example 105, (2S,3S)-N-(19-(((1R,2S,5R)-5-(Isopropyl(methyl)amino)-2-((S)-2-oxo-3-((6-(trifluoromethyl)quinazolin-4-yl)amino)pyrrolidin-1-yl)cyclohexyl)amino)-5,12,19-trioxo-3,9,16-trioxa-6,13-diazanonadecyl)-1-methyl-5-oxo-2-(pyridin-3-yl)pyrrolidine-3-carboxamide]", "values": [{"measurement": "EC50", "setting": "[1]", "value": 0.398, "unit": "nM"}, {"measurement": "pIC50", "setting": "[2]", "value": 4.41}, {"measurement": "Emax at 100 µM", "setting": "[2]", "value": 75.7, "unit": "%"}]}
{"smiles": "CC(C)N(C)[C@@H]1CC[C@H](N2CC[C@H](Nc3ncnc4ccc(C(F)(F)F)cc34)C2=O)[C@H](NC(=O)CCOCCNC(=O)[C@H]2CC[C@@H](NC(=O)COCCNC(=O)[C@H]3CC(=O)N(C)[C@@H]3c3cccnc3)CC2)C1", "note": "[Example 107, (2S,3S)-N-(2-(2-(((1S,4R)-4-((2-(3-(((1R,2S,5R)-5-(Isopropyl(methyl)amino)-2-((S)-2-oxo-3-((6-(trifluoromethyl)quinazolin-4-yl)amino)pyrrolidin-1-yl)cyclohexyl)amino)-3-oxopropoxy)ethyl)carbamoyl)cyclohexyl)amino)-2-oxoethoxy)ethyl)-1-methyl-5-oxo-2-(pyridin-3-yl)pyrrolidine-3-carboxamide]", "values": [{"measurement": "EC50", "setting": "[1]", "value": 0.2, "unit": "nM"}, {"measurement": "pIC50", "setting": "[2]", "value": "≤ 5.00"}, {"measurement": "Emax at 10 µM", "setting": "[2]", "value": 12.2, "unit": "%"}]}
{"smiles": "CC(C)N(C)[C@@H]1CC[C@H](N2CC[C@H](Nc3ncnc4ccc(C(F)(F)F)cc34)C2=O)[C@H](NC(=O)COCCNC(=O)COCCNC(=O)COCCNC(=O)[C@H]2CC(=O)N(C)[C@@H]2c2cccnc2)C1", "note": "[Example 111, (2S,3S)-N-(17-(((1R,2S,5R)-5-(Isopropyl(methyl)amino)-2-((S)-2-oxo-3-((6-(trifluoromethyl)quinazolin-4-yl)amino)pyrrolidin-1-yl)cyclohexyl)amino)-5,11,17-trioxo-3,9,15-trioxa-6,12-diazaheptadecyl)-1-methyl-5-oxo-2-(pyridin-3-yl)pyrrolidine-3-carboxamide]", "values": [{"measurement": "EC50", "setting": "[1]", "value": 5.01, "unit": "nM"}, {"measurement": "pIC50", "setting": "[2]", "value": 4.28}, {"measurement": "Emax at 100 µM", "setting": "[2]", "value": 67.6, "unit": "%"}]}
{"smiles": "CC(C)N(C)[C@@H]1CC[C@H](N2CC[C@H](Nc3ncnc4ccc(C(F)(F)F)cc34)C2=O)[C@H](NC(=O)[C@H]2CC[C@@H](NC(=O)CCCOCCCCOCCNC(=O)[C@H]3CC(=O)N(C)[C@@H]3c3cccnc3)CC2)C1", "note": "[Example 122, (2S,3S)-N-(2-(4-(4-(((1S,4s)-4-(((1R,2S,5R)-5-(Isopropyl(methyl)amino)-2-((S)-2-oxo-3-((6-(trifluoromethyl)quinazolin-4-yl)amino)pyrrolidin-1-yl)cyclohexyl)carbamoyl)cyclohexyl)amino)-4-oxobutoxy)butoxy)ethyl)-1-methyl-5-oxo-2-(pyridin-3-yl)pyrrolidine-3-carboxamide]", "values": [{"measurement": "EC50", "setting": "[1]", "value": 0.794, "unit": "nM"}, {"measurement": "pIC50", "setting": "[2]", "value": "≤ 5.00"}, {"measurement": "Emax at 10 µM", "setting": "[2]", "value": 23, "unit": "%"}]}
{"smiles": "CC(C)N(C)[C@@H]1CC[C@H](N2CC[C@H](Nc3ncnc4ccc(C(F)(F)F)cc34)C2=O)[C@H](NC(=O)CNC(=O)[C@H]2CC[C@@H](NC(=O)CCOCCOCCNC(=O)[C@H]3CC(=O)N(C)[C@@H]3c3cccnc3)CC2)C1", "note": "[Example 137, (2S,3S)-N-(2-(2-(3-(((1S,4s)-4-((2-(((1R,2S,5R)-5-(Isopropyl(methyl)amino)-2-((S)-2-oxo-3-((6-(trifluoromethyl)quinazolin-4-yl)amino)pyrrolidin-1-yl)cyclohexyl)amino)-2-oxoethyl)carbamoyl)cyclohexyl)amino)-3-oxopropoxy)ethoxy)ethyl)-1-methyl-5-oxo-2-(pyridin-3-yl)pyrrolidine-3-carboxamide]", "values": [{"measurement": "EC50", "setting": "[1]", "value": 2, "unit": "nM"}, {"measurement": "pIC50", "setting": "[2]", "value": 4.15}, {"measurement": "Emax at 100 µM", "setting": "[2]", "value": 62, "unit": "%"}]}
{"smiles": "CC(C)N(C)[C@@H]1CC[C@H](N2CC[C@H](Nc3ncnc4ccc(C(F)(F)F)cc34)C2=O)[C@H](NC(=O)[C@H]2CC[C@@H](NC(=O)CCOCCNC(=O)CCNC(=O)CCNC(=O)[C@H]3CC(=O)N(C)[C@@H]3c3cccnc3)CC2)C1", "note": "[Example 182, (2S,3S)-N-(3-((3-((2-(3-(((1S,4s)-4-(((1R,2S,5R)-5-(Isopropyl(methyl)amino)-2-((S)-2-oxo-3-((6-(trifluoromethyl)quinazolin-4-yl)amino)pyrrolidin-1-yl)cyclohexyl)carbamoyl)cyclohexyl)amino)-3-oxopropoxy)ethyl)amino)-3-oxopropyl)amino)-3-oxopropyl)-1-methyl-5-oxo-2-(pyridin-3-yl)pyrrolidine-3-carboxamide]", "values": [{"measurement": "EC50", "setting": "[1]", "value": 0.158, "unit": "nM"}, {"measurement": "pIC50", "setting": "[2]", "value": 4.12}, {"measurement": "Emax at 100 µM", "setting": "[2]", "value": 61.9, "unit": "%"}]}
{"smiles": "CC(C)N(C)[C@@H]1CC[C@H](N2CC[C@H](Nc3ncnc4ccc(C(F)(F)F)cc34)C2=O)[C@H](NC(=O)CCOCCC(=O)N[C@H]2C[C@@H](C(=O)NCCOCCNC(=O)[C@H]3CC(=O)N(C)[C@@H]3c3cccnc3)C2)C1", "note": "[Example 186, (2S,3S)-N-(2-(2-((1S,3R)-3-(3-(3-(((1R,2S,5R)-5-(Isopropyl(methyl)amino)-2-((S)-2-oxo-3-((6-(trifluoromethyl)quinazolin-4-yl)amino)pyrrolidin-1-yl)cyclohexyl)amino)-3-oxopropoxy)propanamido)cyclobutane-1-carboxamido)ethoxy)ethyl)-1-methyl-5-oxo-2-(pyridin-3-yl)pyrrolidine-3-carboxamide]", "values": [{"measurement": "EC50", "setting": "[1]", "value": 0.316, "unit": "nM"}, {"measurement": "pIC50", "setting": "[2]", "value": 4.50}, {"measurement": "Emax at 100 µM", "setting": "[2]", "value": 55.2, "unit": "%"}]}
{"smiles": "CC(C)N(C)[C@@H]1CC[C@H](N2CC[C@H](Nc3ncnc4ccc(C(F)(F)F)cc34)C2=O)[C@H](NC(=O)CCOCCC(=O)N[C@H]2C[C@H](C(=O)NCCOCCNC(=O)[C@H]3CC(=O)N(C)[C@@H]3c3cccnc3)C2)C1", "note": "[Example 187]", "values": [{"measurement": "EC50", "setting": "[1]", "value": 0.251, "unit": "nM"}, {"measurement": "pIC50", "setting": "[2]", "value": 4.15}, {"measurement": "Emax at 100 µM", "setting": "[2]", "value": 63.7, "unit": "%"}]}
